Measurements: US6723525B2, “Methods and compositions for screening modulators of lipid kinases” (Warner-Lambert Company, priority 2000, dated 2004)

How the values were obtained:
[1] = biological target: T1, human sphingosine kinase (huSPHK1) (Homo sapiens, UniProt Q9NYA1); assay: Sphingosine kinase activity scintillation proximity assay (SPA) with extracts of transfected CHO or COS-7 cells; assay type: biochemical; conditions: FIG. 4B; read-out: ATP KM
T1 construct: made in house; host or cells: CHO and/or COS-7 cells, transiently transfected; raw cell extract after thaw/freeze cycles
Procedure: CHO and/or COS-7 cells were cultured in 90% Ham F12 medium, 10% foetal bovine serum, Gentamycin, in T-175 tissue culture flasks in air with 5% CO2 atmosphere at 37° C. CHO and/or COS-7 cells were transiently transfected with the vector pcDNA3 alone or vector containing the human sphingosine kinase cDNA, using the Qiagen reagent Superfect. They were seeded 5×10^6 per 175 cm^2 flask. After 24 hrs, cells were transfected with 10 μg of cDNA mixed with 20 μl Superfect for 6 hrs, washed, and cultured for 2 days in complete Ham medium. They were then trypsinized, centrifuged down at 1500 rpm for 10 min, and resuspended in assay buffer. They underwent 3 thaw/freeze cycles and protein concentration were estimated using the Bradfaord technique (Biorad kit). The protein concentration was adjusted to 1 μg/μl, and aliquots were kept frozen at −20° C. […]
100 μL/well of SPA beads emulsion (corresponding to 0.5 mg/well beads). The plate is covered with a transparent Topseal (Packard), stirred for 1 hour at 800 rpm and counted on a Wallac Trilux. […]
Taking advantage of the property of these supports, a two-steps assay was set up (see FIG. 1). […] The beads settle down for an hour, and the plate is read on a scintillation counter.
Optimization of assay conditions need also the determination of adequate quantities of ATP, sphingosine, and enzyme concentration. […]

[2] = biological target: sphingosine kinases (SPHKs) (Homo sapiens, UniProt Q9NYA1); conditions: cited from earlier work
Sequence of sphingosine kinases (SPHKs) (Q9NYA1 whole entry): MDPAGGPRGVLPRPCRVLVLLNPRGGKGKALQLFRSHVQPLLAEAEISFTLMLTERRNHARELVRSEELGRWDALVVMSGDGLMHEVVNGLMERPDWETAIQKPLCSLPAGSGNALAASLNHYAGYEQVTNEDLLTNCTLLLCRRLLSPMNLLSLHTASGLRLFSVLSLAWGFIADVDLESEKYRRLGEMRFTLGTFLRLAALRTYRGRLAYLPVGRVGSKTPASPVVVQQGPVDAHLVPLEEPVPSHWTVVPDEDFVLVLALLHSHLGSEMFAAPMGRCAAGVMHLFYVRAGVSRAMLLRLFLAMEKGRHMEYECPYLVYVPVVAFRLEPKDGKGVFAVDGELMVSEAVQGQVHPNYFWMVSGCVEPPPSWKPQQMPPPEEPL

T1 sequence (Q9NYA1 whole entry): as above

Row | SMILES | Km [1] | Km [2]
1 | Nc1ncnc2c1ncn2[C@@H]1O[C@H](COP(=O)(O)OP(=O)(O)OP(=O)(O)O)[C@@H](O)[C@H]1O [ATP] | ~30 µM | –
2 | CCCCCCCCCCCCC/C=C/[C@@H](O)[C@@H](N)CO [Sphingosine] | – | 5 µM
